Results published in patent publication US8354455B2, “Prodrugs containing novel bio-cleavable linkers” (Piramal Enterprises Limited and Apparao Satyam, priority 2004, dated 2013).
“Also recorded” adds a separate entry of the source. Like-named read-outs stand apart in the source and are kept apart here. Marks after values point to notes of the source that are not given here.

Columns and labels:
MES-induced seizures [1] = test: Maximal Electroshock Test (MES), Test 1, mice i.p.; type: in vivo; details: for minimal effective dose: Mus musculus, ip; for minimal effective dose / MES 0.5 h / MES 4.0 h: symbol = dose with activity; for activity in MES model (in words): Test 1, mice i.p.; for MES, at 2 hours after dosing: 2 h (footnote h; printed in 4.0 h column)
convulsant metrazol = test: Subcutaneous Metrazol Seizure Threshold Test (scMET), Test 1, mice i.p.; type: in vivo; details: for minimal effective dose: Mus musculus, ip; for minimal effective dose / ScMET 0.5 h / ScMET 4.0 h: symbol = dose with activity; for ScMET (number of animal protected/number of animal tested) / ScMET 0.5 h / ScMET 4.0 h: mice, i.p.; for ScMET (number of animal protected/number of animal tested): 300 mg/kg (+)
mice = details: for Rotorod Toxicity 4.0 h / Rotorod Toxicity (number of animals exhibiting toxicity/number of animals tested) / Rotorod Toxicity 0.5 h: mice, i.p.; for Rotorod Toxicity 4.0 h / Rotorod Toxicity 0.5 h: symbol = dose with toxicity; for Rotorod Toxicity (number of animals exhibiting toxicity/number of animals tested) / Rotorod Toxicity 0.5 h: 0.5 h; for toxicity (in words): Test 1, mice i.p.
rats = test: Neurotoxicity, rats p.o. (Test 2 and Test 3); details: Test 2, rats p.o.
Excerpt: Acute Toxicity—Minimal Motor Impairment (MMI): To assess a compound's undesirable side effects (toxicity), animals were monitored for overt signs of impaired neurological or muscular function.
Groups of at least 8 rats received various doses of the candidate compound until at least two points were established between the limits of 100 percent protection or toxicity and zero percent protection or minimal toxicity. The 95 percent confidence limits, slopes of the regression lines and standard errors of the slopes were calculated for each quantitative determination. Rats received test compounds orally.
This secondary evaluation determines the time to peak effect (TPE), neurotoxicity, median effective dose (ED50) and biological response.

MES-induced seizures [2] = test: animal or person; type: in vivo, rats; details: Test 2, rats p.o., 150 mg/kg
[3] = 0.5 h, read-out: MES 0.5 h, mice, i.p., 0.5 h
[4] = 4 h, read-out: MES 4.0 h, mice, i.p., 4.0 h
[5] = 0.5 h, read-out: ScMET 0.5 h, mice, i.p., 0.5 h
[6] = 4 h, read-out: ScMET 4.0 h, mice, i.p., 4.0 h
[7] = mice, i.p., 0.5 h, 300 mg/kg (+)
[8] = mice, i.p., 4.0 h, 300 mg/kg (+)

SMILES	minimal effective dose (MES-induced seizures [1]; [3]) [mg/kg]	minimal effective dose (MES-induced seizures [1]; [4]) [mg/kg]	minimal effective dose (convulsant metrazol; [5]) [mg/kg]	minimal effective dose (convulsant metrazol; [6]) [mg/kg]	Rotorod Toxicity 4.0 h (mice)	MES (number of animal protected/number of animal tested) (MES-induced seizures [1]; [7])	ScMET (number of animal protected/number of animal tested) (convulsant metrazol; 0.5 h)	Rotorod Toxicity (number of animals exhibiting toxicity/number of animals tested) (mice; 300 mg/kg (+))	Rotorod Toxicity 0.5 h (mice)	MES (number of animal protected/number of animal tested) (MES-induced seizures [1]; [8])	activity in MES model (in words) (MES-induced seizures [1])	ScMET 0.5 h (convulsant metrazol; 0.5 h)	toxicity (in words) (mice)	Toxicity (number of animals exhibiting toxicity/number of animals tested) (rats; 30 mg/kg, 1.00 h)	Toxicity (number of animals exhibiting toxicity/number of animals tested) (rats; 30 mg/kg, 2.00 h)	Toxicity (number of animals exhibiting toxicity/number of animals tested) (rats; 30 mg/kg, 4.00 h)	also measured
CCOC(=O)CC1(CNC(=O)OCCSSCCO[N+](=O)[O-])CCCCC1 [I-A1-NOPD1]	< 300	> 300	> 300	> 300	— (— = no activity or no toxicity at 300 mg/kg)												MES, at 0.25 hours after dosing (MES-induced seizures [1]; mice, i.p., 0.25 h (footnote k; printed in 0.5 h column)): ++ (++ = activity or toxicity at 100 mg/kg)
CCOC(=O)CC1(CNC(=O)OCCSSCCOC(=O)NC(CO)C(=O)OC)CCCCC1 (stereo not shown) [I-A1-PD6]	< 300	> 300	< 300	> 300	— (— = no activity or no toxicity at 300 mg/kg)	(1/1)	(1/1)	(4/4)^i	+ (+ = activity or toxicity at 300 mg/kg)								
CCOC(=O)CC1(CNC(=O)OCCSSCCOC(=O)NC(CCC(=O)OC)C(=O)OC)CCCCC1 (stereo not shown) [I-A1-PD7]	< 300	> 300	< 300	> 300	— (— = no activity or no toxicity at 300 mg/kg)	(1/1)	(1/1)^e	(2/4)^d	+ (+ = activity or toxicity at 300 mg/kg)								
CCOC(=O)CC1(CNC(=O)OCCSSCCO)CCCCC1 [I-A1-PD8]		> 300	> 300	> 300	— (— = no activity or no toxicity at 300 mg/kg)	(1/1)	(1/1)	(4/4)^f		(1/1)							MES (number of animal protected/number of animal tested) (MES-induced seizures [1]; mice, i.p., 0.5 h, 100 mg/kg (++)): (2/3)
CCOC(=O)CC1(CNC(=O)OCCSSCCOC(=O)NCCN(C)C)CCCCC1 [I-A1-PD10]	> 300	> 300	> 300	> 300					++ (++ = activity or toxicity at 100 mg/kg)								Rotorod Toxicity (number of animals exhibiting toxicity/number of animals tested) (mice; 100 mg/kg (++)): (8/8)^j
CCOC(=O)CC1(CNC(=O)OCCSSCCOC(C)=O)CCCCC1 [I-A1-PD13]	< 300	> 300	< 300	> 300	— (— = no activity or no toxicity at 300 mg/kg)	(1/1)	(1/1)	(1/4)	+ (+ = activity or toxicity at 300 mg/kg)								
CS(=O)(=O)NC(=O)OCCSSCCOC(=O)Nc1nnc(-c2cccc(Cl)c2Cl)c(N)n1 [I-A1-PD15]										(1/1)	active in MES	— (— = no activity or no toxicity at 300 mg/kg)	no or mild toxicity	0/4	0/4	0/4	ScMET 4.0 h (convulsant metrazol): — (— = no activity or no toxicity at 300 mg/kg); Toxicity (number of animals exhibiting toxicity/number of animals tested) (rats; 30 mg/kg, 0.50 h): 0/4
Nc1nc(NC(=O)OCCSSCCOC(=O)NCC2(CC(=O)O)CCCCC2)nnc1-c1cccc(Cl)c1Cl [I-AA-MPD11]	> 300		> 300	> 300	— (— = no activity or no toxicity at 300 mg/kg)					(1/1)	active in MES		no or mild toxicity	0/4	0/4	0/4	
CCOC(=O)CC1(CNC(=O)OCCSSCCOC(=O)NC(=O)[C@H](CC)N2CCCC2=O)CCCCC1 [I-AA-MPD13]	> 300	> 300	< 300	> 300	— (— = no activity or no toxicity at 300 mg/kg)				+ (+ = activity or toxicity at 300 mg/kg)								
CCCC(CCC)C(=O)OCCSSCCOC(=O)Nc1nnc(-c2cccc(Cl)c2Cl)c(N)n1 [I-CA-MPD23]										(1/3)	active in MES	— (— = no activity or no toxicity at 300 mg/kg)	no or mild toxicity				MES 0.5 h (MES-induced seizures [1]; mice, i.p., 0.5 h): — (— = no activity or no toxicity at 300 mg/kg); MES, at 2 hours after dosing (MES-induced seizures [1]; mice, i.p.): ++ (++ = activity or toxicity at 100 mg/kg); MES 4.0 h (MES-induced seizures [1]; mice, i.p., 4.0 h): + (+ = activity or toxicity at 300 mg/kg); ScMET 4.0 h (convulsant metrazol): — (— = no activity or no toxicity at 300 mg/kg); MES (number of animal protected/number of animal tested) (MES-induced seizures [2]; 4.00 h): 4/4; MES (number of animal protected/number of animal tested) (MES-induced seizures [2]; 6.00 h): 4/4; MES (number of animal protected/number of animal tested) (MES-induced seizures [2]; 8.00 h): 4/4; Toxicity (number of animals exhibiting toxicity/number of animals tested) (rats; 150 mg/kg, 2.00 h): 0/4; Toxicity (number of animals exhibiting toxicity/number of animals tested) (rats; 150 mg/kg, 4.00 h): 0/4; Toxicity (number of animals exhibiting toxicity/number of animals tested) (rats; 150 mg/kg, 6.00 h): 0/4; Toxicity (number of animals exhibiting toxicity/number of animals tested) (rats; 150 mg/kg, 8.00 h): 0/4
Nc1nc(NC(=O)OCCSSCCOC(=O)c2cccnc2)nnc1-c1cccc(Cl)c1Cl [I-CA-MPD24]					— (— = no activity or no toxicity at 300 mg/kg)				— (— = no activity or no toxicity at 300 mg/kg)		active in MES	— (— = no activity or no toxicity at 300 mg/kg)	non-toxic; also recorded: no or mild toxicity	0/4	0/4	0/4	MES 0.5 h (MES-induced seizures [1]; mice, i.p., 0.5 h): — (— = no activity or no toxicity at 300 mg/kg); MES, at 2 hours after dosing (MES-induced seizures [1]; mice, i.p.): ++ (++ = activity or toxicity at 100 mg/kg); MES (number of animal protected/number of animal tested) (MES-induced seizures [1]; mice, i.p., 2 h after dosing, 100 mg/kg (++)): (3/3)^h; MES 4.0 h (MES-induced seizures [1]; mice, i.p., 4.0 h): ++ (++ = activity or toxicity at 100 mg/kg); MES, at 6 hours after dosing (MES-induced seizures [1]; mice, i.p., 6 h (footnotes g, m; printed in 4.0 h column)): ++ (++ = activity or toxicity at 100 mg/kg); MES (number of animal protected/number of animal tested) (MES-induced seizures [1]; mice, i.p., 6 h after dosing, 100 mg/kg (++)): (3/3)^m; activity in scMET model (in words) (convulsant metrazol; Test 1, mice i.p.): active; Toxicity (number of animals exhibiting toxicity/number of animals tested) (rats; 30 mg/kg, 0.50 h): 0/4
Cl.Nc1nc(NC(=O)OCCSSCCNC(=O)c2cccnc2)nnc1-c1cccc(Cl)c1Cl [I-CA-MPD25]					— (— = no activity or no toxicity at 300 mg/kg)				— (— = no activity or no toxicity at 300 mg/kg)	(1/1)	active in MES	— (— = no activity or no toxicity at 300 mg/kg)	no or mild toxicity	0/4	0/4	0/4	ScMET 4.0 h (convulsant metrazol): — (— = no activity or no toxicity at 300 mg/kg); Toxicity (number of animals exhibiting toxicity/number of animals tested) (rats; 30 mg/kg, 0.50 h): 0/4
